Test results as given in the NIST ThermoML archive (doi:10.1021/je050020m).

Assay: xn = mol fraction of the nth substance listed
Conditions: Liquid, Vibrating tube method

CCCCCCCCCC [decane] + O=C=O
Conditions	mass density [kg/m3]
352.78 K, 12025 kPa, x2 = 0.0551	697.67
352.78 K, 13009 kPa, x2 = 0.0551	698.59
352.78 K, 14003 kPa, x2 = 0.0551	699.6
352.78 K, 15017 kPa, x2 = 0.0551	700.5
352.78 K, 16009 kPa, x2 = 0.0551	701.58
352.78 K, 17043 kPa, x2 = 0.0551	702.49
352.78 K, 18011 kPa, x2 = 0.0551	703.38
352.78 K, 18999 kPa, x2 = 0.0551	704.26
352.78 K, 19980 kPa, x2 = 0.0551	705.14
352.78 K, 21012 kPa, x2 = 0.0551	706.06
352.78 K, 22017 kPa, x2 = 0.0551	706.96
352.78 K, 23034 kPa, x2 = 0.0551	707.84
352.78 K, 24044 kPa, x2 = 0.0551	708.75
352.78 K, 24991 kPa, x2 = 0.0551	709.57
352.79 K, 6023 kPa, x2 = 0.2369	695.17
352.79 K, 7016 kPa, x2 = 0.2369	696.39
352.79 K, 8017 kPa, x2 = 0.2369	697.7
352.79 K, 9014 kPa, x2 = 0.2369	698.95
352.79 K, 10006 kPa, x2 = 0.2369	700.1
352.79 K, 11019 kPa, x2 = 0.2369	701.32
352.79 K, 12015 kPa, x2 = 0.2369	702.48
352.79 K, 13014 kPa, x2 = 0.2369	703.71
352.79 K, 14010 kPa, x2 = 0.2369	704.77
352.79 K, 15002 kPa, x2 = 0.2369	705.93
352.79 K, 16000 kPa, x2 = 0.2369	707.03
352.79 K, 17020 kPa, x2 = 0.2369	708.08
352.79 K, 18006 kPa, x2 = 0.2369	709.15
352.79 K, 19014 kPa, x2 = 0.2369	710.21
352.79 K, 19955 kPa, x2 = 0.2369	711.22
352.79 K, 21069 kPa, x2 = 0.2369	712.3
352.79 K, 22042 kPa, x2 = 0.2369	713.3
352.79 K, 23032 kPa, x2 = 0.2369	714.28
352.79 K, 24057 kPa, x2 = 0.2369	715.33
352.79 K, 24999 kPa, x2 = 0.2369	716.29
352.8 K, 8029 kPa, x2 = 0.4536	702.49
352.8 K, 9011 kPa, x2 = 0.4536	704.17
352.8 K, 10022 kPa, x2 = 0.4536	705.86
352.8 K, 11012 kPa, x2 = 0.4536	707.47
352.8 K, 12018 kPa, x2 = 0.4536	709.07
352.8 K, 13013 kPa, x2 = 0.4536	710.62
352.8 K, 14019 kPa, x2 = 0.4536	712.14
352.8 K, 15017 kPa, x2 = 0.4536	713.63
352.8 K, 16008 kPa, x2 = 0.4536	715.06
352.8 K, 17028 kPa, x2 = 0.4536	716.51
352.8 K, 18018 kPa, x2 = 0.4536	717.9
352.8 K, 19024 kPa, x2 = 0.4536	719.28
352.8 K, 20015 kPa, x2 = 0.4536	720.6
352.8 K, 21003 kPa, x2 = 0.4536	721.91
352.8 K, 22029 kPa, x2 = 0.4536	723.29
352.8 K, 23006 kPa, x2 = 0.4536	724.51
352.8 K, 24025 kPa, x2 = 0.4536	725.86
352.8 K, 25013 kPa, x2 = 0.4536	727.09
362.63 K, 15022 kPa, x2 = 0.8114	681.16
362.63 K, 16023 kPa, x2 = 0.8114	688.18
362.63 K, 17027 kPa, x2 = 0.8114	694.15
362.63 K, 18027 kPa, x2 = 0.8114	699.67
362.63 K, 19028 kPa, x2 = 0.8114	704.83
362.63 K, 20026 kPa, x2 = 0.8114	709.67
362.63 K, 21017 kPa, x2 = 0.8114	714.17
362.63 K, 22023 kPa, x2 = 0.8114	718.48
362.63 K, 23019 kPa, x2 = 0.8114	722.51
362.63 K, 24030 kPa, x2 = 0.8114	726.42
362.63 K, 25024 kPa, x2 = 0.8114	730.11
362.65 K, 5978 kPa, x2 = 0.2369	686.43
362.65 K, 7016 kPa, x2 = 0.2369	687.86
362.65 K, 8020 kPa, x2 = 0.2369	689.21
362.65 K, 9035 kPa, x2 = 0.2369	690.58
362.65 K, 10044 kPa, x2 = 0.2369	691.88
362.65 K, 11011 kPa, x2 = 0.2369	693.13
362.65 K, 12005 kPa, x2 = 0.2369	694.38
362.65 K, 13039 kPa, x2 = 0.2369	695.64
362.65 K, 14013 kPa, x2 = 0.2369	696.82
362.65 K, 15072 kPa, x2 = 0.2369	698.07
362.65 K, 15510 kPa, x2 = 0.9663	452.61
362.65 K, 16012 kPa, x2 = 0.2369	699.18
362.65 K, 16012 kPa, x2 = 0.9663	471.04
362.65 K, 17007 kPa, x2 = 0.9663	504.42
362.65 K, 17009 kPa, x2 = 0.2369	700.33
362.65 K, 18008 kPa, x2 = 0.2369	701.44
362.65 K, 18010 kPa, x2 = 0.9663	534.34
362.65 K, 19013 kPa, x2 = 0.9663	561.23
362.65 K, 19020 kPa, x2 = 0.2369	702.57
362.65 K, 20006 kPa, x2 = 0.2369	703.64
362.65 K, 20015 kPa, x2 = 0.9663	585.01
362.65 K, 21029 kPa, x2 = 0.9663	606.13
362.65 K, 21068 kPa, x2 = 0.2369	704.82
362.65 K, 22007 kPa, x2 = 0.2369	705.81
362.65 K, 22007 kPa, x2 = 0.9663	624.31
362.65 K, 23022 kPa, x2 = 0.9663	641.03
362.65 K, 23055 kPa, x2 = 0.2369	706.93
362.65 K, 24015 kPa, x2 = 0.9663	655.59
362.65 K, 24030 kPa, x2 = 0.2369	707.95
362.65 K, 25028 kPa, x2 = 0.9663	669.28
362.65 K, 25056 kPa, x2 = 0.2369	709.02
362.66 K, 2031 kPa, x2 = 0.0551	678.97
362.66 K, 3029 kPa, x2 = 0.0551	680.17
362.66 K, 4134 kPa, x2 = 0.0551	681.5
362.66 K, 5034 kPa, x2 = 0.0551	682.58
362.66 K, 6050 kPa, x2 = 0.0551	683.77
362.66 K, 7045 kPa, x2 = 0.0551	684.91
362.66 K, 8030 kPa, x2 = 0.0551	686.02
362.66 K, 9020 kPa, x2 = 0.0551	687.12
362.66 K, 9024 kPa, x2 = 0.4536	693.68
362.66 K, 10012 kPa, x2 = 0.4536	695.47
362.66 K, 10044 kPa, x2 = 0.0551	688.25
362.66 K, 11025 kPa, x2 = 0.0551	689.34
362.66 K, 11031 kPa, x2 = 0.4536	697.25
362.66 K, 11987 kPa, x2 = 0.0551	690.35
362.66 K, 12002 kPa, x2 = 0.4536	698.93
362.66 K, 13025 kPa, x2 = 0.0551	691.46
362.66 K, 13028 kPa, x2 = 0.4536	700.66
362.66 K, 14008 kPa, x2 = 0.4536	702.25
362.66 K, 14075 kPa, x2 = 0.0551	692.5
362.66 K, 15024 kPa, x2 = 0.4536	703.87
362.66 K, 15026 kPa, x2 = 0.0551	693.52
362.66 K, 16000 kPa, x2 = 0.4536	705.42
362.66 K, 16020 kPa, x2 = 0.0551	694.47
362.66 K, 17003 kPa, x2 = 0.0551	695.45
362.66 K, 17017 kPa, x2 = 0.4536	706.96
362.66 K, 18002 kPa, x2 = 0.4536	708.44
362.66 K, 18032 kPa, x2 = 0.0551	696.46
362.66 K, 19030 kPa, x2 = 0.0551	697.38
362.66 K, 19030 kPa, x2 = 0.4536	709.94
362.66 K, 19998 kPa, x2 = 0.0551	698.32
362.66 K, 20001 kPa, x2 = 0.4536	711.37
362.66 K, 21029 kPa, x2 = 0.4536	712.8
362.66 K, 21052 kPa, x2 = 0.0551	699.32
362.66 K, 22014 kPa, x2 = 0.4536	714.18
362.66 K, 22028 kPa, x2 = 0.0551	700.22
362.66 K, 22996 kPa, x2 = 0.0551	701.1
362.66 K, 23024 kPa, x2 = 0.4536	715.57
362.66 K, 24006 kPa, x2 = 0.4536	716.91
362.66 K, 24036 kPa, x2 = 0.0551	702.1
362.66 K, 25008 kPa, x2 = 0.0551	702.93
362.66 K, 25025 kPa, x2 = 0.4536	718.29
